The text below walks through data of PubChem BioAssay AID2305 (GlaxoSmithKline (GSK), 2010).

As usually defined, the IC50 is the concentration that gives 50% inhibition. Low readings indicate greater potency, high ones weaker potency.

For this assay, the system named is P. falciparum 3D7 growth, pLDH absorbance. The assay is described as follows: blood-stage malaria parasite growth potency – strain 3D7, dose response (AID 2305).
Compound `Cc1ccccc1C1CCN(C2CCC(NC(=O)c3cncc(-c4ccccc4)c3)CC2)CC1` (stereo not given) had an IC50 of 0.93 µM.
The figure for `CCOC(=O)c1ccc(N=C2SC(=Cc3cc(Br)ccc3O)C(=O)N2C)cc1` is 1 µM.
The figure for `CN(C)c1ccc(C=Cc2nc(=O)c3ccccc3o2)cc1` is 0.04 µM; for `CCc1c(C)c(C#N)c2nc3ccccc3n2c1NCc1ccco1` it is 0.7 µM.
The figure for `CC[C@H]1CN2CC[C@H]1C[C@H]2[C@H](O)c1cc(-c2ccc(F)cc2C)nc2ccc(OC)cc12` is 0.16 µM; for `O=C(OCc1ccccn1)c1nc2ccccc2[nH]1` it is 0.79 µM; for `CN(C)CCC=C1c2ccccc2Sc2c(O)cc(Cl)cc21` it is 0.28 µM.
For `COc1ccc2ncc(Cl)c(CCN3C[C@H](CNCc4ccc5c(n4)NC(=O)CS5)[C@H](O)C3)c2n1`, the IC50 was determined as 1 µM.
The figure for `COCCSc1ccc(CC(C)NCC(O)c2cccc(Cl)c2)cc1` (stereo not given) is 0.76 µM.
The figure for `CCCc1ccc(NC(=O)c2ccc(CN3CCCN(CC4CCCCC4)CC3)cc2)cc1` is 0.52 µM; for `CCCCN(CCCC)CCCCCCNc1c2ccccc2nc2ccccc12` it is 0.78 µM; for `CCCNC(=O)C1CCN(C(c2ccc(Cl)cc2)c2ccc(Cl)cc2)CC1` it is 0.48 µM.
In the case of `COc1ccccc1C1CCN(C2CCC(NC(=O)/C=C/c3cccc(Cl)c3)CC2)CC1` (stereo not given) it was 1.03 µM; in that of `COc1ccc(CNCc2ccc(F)cc2)cc1-c1ccc(S(=O)(=O)NCCN2CCCC2)cc1`, 1.04 µM; in that of `NOCCCOc1ccccc1`, 0.32 µM.
`C=C(C)Cn1cc(C2CCN(CCCCNC(=O)c3sc(-c4ccc(Cl)cc4Cl)nc3CO)CC2)c2ccccc21` had a 50% inhibitory concentration (IC50) of 1.15 µM.
On to `O=c1cc(NCc2ccccc2NCc2ccc(Cl)c(Cl)c2)[nH]c2ccccc12`, for which the IC50 is 0.84 µM.
The figure for `CCc1c[nH]c2c(N3CCCCS3(=O)=O)cc(C(=O)N[C@@H](Cc3ccccc3)[C@H](O)CNCc3cccc(OC)c3)cc12` is 0.91 µM; for `COc1ccc(C(=O)Nc2ccc3nc(N4CCCCC4)cc(C)c3c2)cc1[N+](=O)[O-]` it is 0.78 µM.
The figure for `O=C(/C=C/c1ccc(Cl)c(Cl)c1)NCCCCCCN1CCN(C(=O)Nc2ccc(Cl)c(Cl)c2)CC1` is 0.93 µM.
In the case of `O=C(Cn1c(CCc2cccc(F)c2F)cc(=O)c2cccnc21)N(CCN1CCCC1)Cc1ccc(-c2ccc(C(F)(F)F)cc2)cc1` it was 0.89 µM; in that of `Cc1ccc(Oc2ncccc2C(=O)Nc2cccc3cccnc23)c(C)c1`, 0.22 µM.
In turn, `CC(C)N(CC(=O)c1ccc(O)c(C(=O)O)c1)Cc1ccccc1` yielded a half-maximal inhibitory concentration (IC50) of 0.19 µM.
Consider `O=C(Nc1ccc(Cn2ncc(N3CCCNCC3)c(Cl)c2=O)cc1)Nc1ccc(SC(F)(F)F)cc1`, for which the half-inhibitory concentration (IC50) is 0.53 µM.
Compound `Cc1noc(C)c1C(=O)N1CCc2cc3nccc(N4CCN5CCC[C@H]5C4)c3cc21` had an IC50 of 0.87 µM.
The figure for `CN1CCCN(Cc2cccc(-c3cccc(NC(=O)c4ccc(Cl)cc4)c3)c2)CC1` is 0.92 µM.
`CC(C)C1=NCc2ccc([N+](=O)[O-])cc2C(=O)N1` gave an IC50 of 0.15 µM.
The figure for `Cc1nc2ccccc2c(=O)n1NCc1ccc(Cl)c(Cl)c1` is 0.15 µM.
In the case of `O=C(Nc1ccc([N+](=O)[O-])cc1Cl)c1cc(Br)cc(Cc2ccccc2)c1O` it was 1.29 µM; in that of `Cc1cc(-c2cccc(CNCc3ccccc3)c2)ccc1S(=O)(=O)NCCN1CCCC1`, 0.73 µM.
In the case of `COc1ccc2nc3cc(Cl)ccc3c(NCCc3ccccc3)c2c1` it was 0.95 µM; in that of `O=c1cc(NCCCNCc2ccccc2-c2ccccc2)[nH]c2ccccc12`, 0.98 µM.
For the compound `CN1CCCC(OC(=O)c2ccccc2)C1` (stereo not given), the IC50 was determined as 0.76 µM.
The figure for `CC(C)(C)c1ccc(NC(=O)c2cccc(CN3CCCN(Cc4ccc(F)cc4)CC3)c2)cc1` is 0.99 µM; for `c1ccc([C@H]2CN3CCSC3=N2)cc1` it is 0.62 µM; for `COc1cc2nccc(Nc3ccc(OCc4ccc(NC(C)=O)cc4)cc3)c2cc1OC` it is 0.55 µM.
`O=C1CCCN1CCCNCc1ccc(-c2ccc(-c3nc4ccc(F)cc4[nH]3)s2)cc1` gave a 50% inhibitory concentration (IC50) of 0.9 µM.
The figure for `COc1ccc(NC(=O)Nc2ccc(C)c(-c3ccc(C(=O)NCCN4CCCC4)cc3)c2)cc1` is 0.9 µM; for `CC1(C)CN(CCC2CCC(NC(=O)/C=C/c3ccccc3F)CC2)Cc2ccc(C#N)cc21` (stereo not given) it is 1.11 µM; for `CCCNCc1ccc(-c2ccc(CN(CCOC)C(=O)CCc3ccc(OC)cc3)cc2)nc1` it is 0.98 µM.
The figure for `O=C(Nc1ccccc1)Nc1cccc(-c2ccc(-c3nc4ccc(C(F)(F)F)cc4[nH]3)cc2)c1` is 0.23 µM; for `COc1ccc(-c2ccc(NC(=O)c3cccc(Cl)c3)cc2)cc1CN1CCCN(C)CC1` it is 0.6 µM; for `CN(C(=O)OCc1ccccc1)C1CCC(CCN2CCC3(CC2)C(=O)NCN3c2cccc(C(F)(F)F)c2)(c2ccccc2)CC1` (stereo not given) it is 1.18 µM.
The figure for `O=C(NCCN1CCCC1)c1cccc(Nc2nccc(Nc3ccc(Oc4ccccc4)cc3)n2)c1` is 0.65 µM.
With `NC1=NC2(CCCC2)N(c2ccc(Cl)cc2)C(N)=N1`, the half-maximal inhibitory concentration (IC50) amounted to 0.41 µM.
With `CN1CCN(c2ccc(-c3cc(-c4cc(F)c(F)c(F)c4)cnc3N)cc2)CC1`, the concentration for half-maximal inhibition (IC50) was determined as 1.01 µM.
The figure for `CC(C)(C)c1ccc(Cn2c(=N)n(CC(=O)c3ccc(-c4ccccc4)cc3)c3ccccc32)cc1` is 0.16 µM; for `S=C(NCCc1ccccc1)Nc1ccc2ncsc2c1` it is 1.4 µM; for `O=S(=O)(c1cccc(C(F)(F)F)c1)N1CCC(CO)(Cc2cccc(C(F)(F)F)c2)CC1` it is 0.96 µM.
The figure for `Cc1ccc(C(C)C)c(Oc2cnc(NC(CO)c3ccccc3)nc2N)c1` (stereo not given) is 0.96 µM.
In the case of `Cc1cc(NC(=O)c2cccs2)ccc1OC1CCN(Cc2ccccc2)CC1` it was 0.87 µM.
`C[C@@H]1CN(c2cnn(Cc3ccc(NC(=O)Nc4cccc(C(F)(F)F)c4)cc3)c(=O)c2Cl)C[C@H](C)N1` showed an IC50 of 0.94 µM.
In the case of `COc1ccc2nccc([C@@H](O)CN3CCC(NCCOc4ccc(F)cc4[N+](=O)[O-])CC3)c2c1` it was 0.12 µM.
The compound `NS(=O)(=O)c1ccccc1Nc1nc(Nc2ccc(N3CCOCC3)cc2)nc2c1CCC2` gave a half-inhibitory concentration (IC50) of 0.67 µM.
In the case of `C=CCc1cc(Cc2cnc(N)nc2N)c2ccc(C)nc2c1OC` it was 0.69 µM; in that of `Cc1c(C(=O)NC2CCC(CN3CCC(c4c[nH]c5ccccc45)CC3)CC2)cnn1-c1c(Cl)cc(Cl)cc1Cl` (stereo not given), 0.71 µM.
In turn, `c1ccc(-c2cc(NCCCCCCCCNc3cc(-c4ccccc4)nc4ccccc34)c3ccccc3n2)cc1` gave an IC50 of 0.39 µM.
The figure for `Cc1cc(N[C@@H](Cc2ccccc2)C(=O)NCc2cccc(F)c2)nc(NCCOc2ccccc2)n1` is 0.79 µM; for `O=S(=O)(Nc1ccc(-c2ccc(CN3CCCC3)cc2)cc1)c1cccc2cccnc12` it is 1.02 µM; for `O=C(C=Cc1cccs1)N(CCCn1ccnc1)c1nc2ccc(F)cc2s1` it is 1.6 µM.
The figure for `CC[C@H](C)CNC(=O)c1cccc(-c2cccc(CN3CCC(N4CCCC4)CC3)c2)n1` is 0.71 µM.
The figure for `O=C(N[C@@H](CC1CCCCC1)C(=O)NCc1cccc(C(F)(F)F)c1)c1ccc(O)c(-c2ccc(Cl)c(Cl)c2)c1` is 0.22 µM; for `Cc1cc(NN=Cc2ccccc2)c2cc(C(F)(F)F)ccc2n1` it is 0.15 µM; for `CO/C(=C/C=C/c1cc2cc(Cl)c(Cl)cc2[nH]1)C(=O)NC1CC(C)(C)N(C)C(C)(C)C1` it is 0.78 µM.
In turn, `COc1cc(NC(=O)/C=C/c2cccc3ccoc23)ccc1OCCN(C(C)C)C(C)C` had an IC50 of 1.04 µM.
The figure for `CCCNC(=O)C1Cc2c([nH]c3ccc(Br)cc23)C2(CCN(CCc3ccccc3)CC2)N1` (stereo not given) is 0.68 µM.
`N#Cc1ccc(CNCCCCCCCNCc2ccc(-c3ccccc3)cc2)cc1`: the IC50 stood at 0.97 µM.
In the case of `Clc1ccc2c(N3CCCNCC3)ccnc2c1` it was 0.48 µM; in that of `CN(C)S(=O)(=O)c1cc(-c2ccc3nccc(-c4cccc(S(N)(=O)=O)c4)c3c2)cnc1N`, 0.25 µM; in that of `O=C(Nc1ccc(C(F)(F)F)cc1)c1cccc(S(=O)(=O)NC2CCN(CC3CCCCC3)CC2)c1`, 0.85 µM.
In the case of `O=C(Nc1ccnc(N2CCCN(Cc3cccc(O)c3)CC2)c1)c1ccc(F)cc1`, the half-inhibitory concentration (IC50) was 1.48 µM.
In the case of `CC(C)c1cccc(OCC2CCN(c3ncc(C(=O)Nc4ccccc4)cc3Cl)CC2)c1` it was 1.06 µM; in that of `Cc1cccc2[nH]c(-c3ccc(-c4cccc(NC(=O)Nc5cccc(C#N)c5)c4)cc3)nc12`, 0.54 µM.
For `OC(Cn1ccnc1)(c1ccc(Cl)cc1Cl)C1CCCCC1` (stereo not given), the IC50 stood at 0.98 µM.
For `N=C1SC(=Cc2cn[nH]c2-c2ccc(F)cc2)C(=O)N1c1nccs1`, the IC50 was found to be 0.22 µM.
The figure for `O=c1cc(NCCCNCc2scc(I)c2I)[nH]c2ccccc12` is 0.59 µM.
In the case of `O=C(NC1CC1)c1ccc(N2CCC(COc3cccc(F)c3)CC2)nc1` it was 1.24 µM.
The figure for `Cc1cc(NCCCOc2ccc(Cl)cc2)nc(NCc2ccccc2)n1` is 0.78 µM; for `CCOc1ccc(NC(=O)c2ccc(NCCCN3CC(C)CC(C)C3)c([N+](=O)[O-])c2)cc1` (stereo not given) it is 0.71 µM; for `COc1cccc(O)c1CN1CCC2(CCCN(Cc3ccc(F)cc3)C2)C1` (stereo not given) it is 0.87 µM.
In turn, `COc1ccc2ncc(F)c(CCN3CC[C@@H](CNCc4cc5c(cn4)OCS5)C3)c2n1` came in with a concentration for half-maximal inhibition (IC50) of 1.16 µM.
The figure for `O=C1c2cc(I)ccc2SC1c1ccccc1` (stereo not given) is 0.82 µM; for `COc1ccc(NC(=O)Nc2cccc(-c3cccc(-c4nc5ccccc5[nH]4)c3)c2)cc1` it is 0.31 µM; for `Cc1ccc(Nc2ccnc(Nc3ccc4c(c3)CS(=O)(=O)C4)n2)cc1O` it is 0.72 µM.
The figure for `CCCN1CCN(CCCCNc2c3ccccc3nc3ccccc23)CC1` is 0.41 µM.
In the case of `CCN1CCN(c2cc(C)c3cc(NC(=O)c4ccc(OC)c(OC)c4)ccc3n2)CC1` it was 1.03 µM.
In turn, `COc1cc2nc(N3CCN(C(=O)c4ccco4)CC3)nc(NCc3ccccc3)c2cc1OC` came in with a half-maximal inhibitory concentration (IC50) of 0.17 µM.
In the case of `CCN1CCC(N(Cc2ccc(-c3ccc(Cl)cc3)cc2)C(=O)Cn2c(CCc3cccc(F)c3F)cc(=O)c3ccccc32)CC1` it was 0.7 µM; in that of `CCOc1ccc2c(NN=Cc3cccc(OC)c3OC)cc(C)nc2c1`, 0.9 µM; in that of `COCCNCc1cccc(-c2cc3nccc(Nc4ccc(Oc5ccccc5)cc4)c3cc2Cl)c1`, 1.38 µM.
